In patent US11419916B2, “Methods and compositions for inducing differentiation of human brown adipocyte progenitors” (Energesis Pharmaceuticals, Inc., priority 2014, dated 2022):
Counter-ions that a name gives are not always drawn.

How the values were obtained:
[1] = test system: CD31-cells (BAT progenitor cells isolated from human skeletal muscle); assay: Quantification of UCP1 and PPARγ2 mRNA (normalized to cyclophilin A) by multiplexed TaqMan real-time PCR to quantify differentiation into brown adipocytes; assay type: cell-based
Source text: A robust method, previously disclosed in WO2013071063 and incorporated herein by reference, was used for detection of CD31-cell differentiation into brown adipocytes by simultaneously quantifying mRNA species corresponding to the brown adipocyte marker UCP1, the adipocyte marker PPARγ2, and the “housekeeping” gene cyclophilin A which was used as the internal control.
This method permits analysis of a large number of samples to identify agents that enhance the differentiation of CD31-cells into brown adipocytes. When differentiated into brown adipocytes CD31-cells express much higher levels of UCP1 and PPARγ2 mRNA for a given level of cyclophilin A. UCP1 and PPARγ2 mRNA levels normalized to cyclophilin A mRNA levels give an indication of the level of differentiation of the CD31-cells into brown adipocytes, independent of the total number of cells in the sample.
Quantification of UCP1, PPARγ2 and cyclophilin A mRNA by multiplexed TaqMan real-time PCR was thus used to quantify differentiation of the CD31-cells into brown adipocytes.
Cells were seeded at 10,000 per cm^2 in 0.2% gelatin coated plates (48-well tissue culture, Chemglass #CLS-3500-048), cultured until confluency (2-4 days) at 37° C. in Endothelial cell growth medium-2 (EGM2) (BulletKit growth medium, Lonza #CC-3162) and until differentiation (10-16 more days). After 2 or 3 days in EGM2 medium the cells were induced to differentiate by replacing the medium with an adipogenic medium, which is a modification of the adipogenic medium described by Rodriguez et al. and may or may not contain a differentiation inducing agent (e.g., PPARγ agonist). […] If rosiglitazone is used as a differentiation-inducing agent, it can be supplied at 1 μM or any other concentration sufficient to induce differentiation of BAT progenitor cells into adipocytes.
Total RNA was prepared from cells using PureLink RNA Isolation Kit (Invitrogen #12183-016) First strand cDNA were synthesized using the High Capacity cDNA Reverse Transcription kit (Applied Biosystems, Foster City, Calif.) and random primers.
Quantitative real-time PCR was performed using an Applied Biosystems StepOnePlus™ instrument, TaqMan Gene Expression Master Mix (Applied Biosystems #4369016), and custom TaqMan gene expression probes and primers for human uncoupling protein-1 “UCP1” (GenBank NM_021833) and for human peptidylprolyl isomerase A “cyclophilin A” (GenBank NM_021130).
Cyclophilin A was used as a control to account for any variations due to the efficiency of reverse transcription. Arbitrary units were determined by normalizing target mRNA levels to cyclophilin A mRNA levels (based on Cts).

[2] = test system: CD31-cells (brown adipocyte progenitors); assay: Quantification of UCP1 protein by immunohistochemistry (IHC); assay type: cell-based, human; details: total intensity of UCP1 signal normalized to cell number
Procedure: Differentiation of brown adipocyte progenitors into brown adipocytes can be detected through quantification of UCP1 protein by immunohistochemistry (IHC).
Culturing and differentiation of CD31-cells into brown adipocytes were performed using adipogenic differentiation medium lacking (Minimal Differentiation Medium, MDM) or containing 1 μM rosiglitazone (Reference Differentiation Medium, RDM). After 15 days of differentiation cells were fixed with 4% Paraformaldehyde PBS pH 7.4, and incubated with a UCP1 antibody (Abcam ab23841) and Alexafluor 488 goat anti-rabbit antibody to quantify relative UCP1 levels (green) according to standard protocols. Prior to fixation of cells, nuclei were labeled with 5 μM DAPI (blue) for 10 minutes. Each treatment condition was evaluated in triplicate in a 96-well plate corresponding to approximately 360-480 cells for each data point in total. The InCell 1000 Developer Toolbox software was used to develop an automated cell detection script to measure UCP1 signal intensity, using the nuclei and cytoplasm detection algorithms. As a readout, total intensity of UCP1 signal within the cell was used, normalized to cell number.

**Q.** With bombesin as the molecule, how does the “differentiation of BAT progenitor cells into brown adipocytes and/or expression of UCP1, PPARγ2 mRNA” value (“differentiation … PPARγ2 mRNA” below) [1] read?
**A.** The value was “promote the differentiation of BAT progenitor cells into brown adipocytes and/or induce the expression of UCP1”.

**Q.** Which “UCP1 protein signal (IHC), differentiation of brown adipocyte progenitors into brown adipocytes” value [2] does the source give for `O=C(CCCN1CCC2(CC1)C(=O)NCN2c1ccccc1)c1ccc(F)cc1` [Spiperone] here?
**A.** The value was “identified using this technique”.

**Q.** How did the “differentiation … PPARγ2 mRNA” value [1] turn out when `COC(=O)N(C)c1c(N)nc(-c2nn(Cc3ccccc3F)c3ncccc23)nc1N` [riociguat] was run?
**A.** Its value is “promote the differentiation of BAT progenitor cells into brown adipocytes and/or induce the expression of UCP1”.

**Q.** Which “UCP1 protein signal (IHC), differentiation of brown adipocyte progenitors into brown adipocytes” value [2] does the source give for `CN(C)C(=N)N=C(N)N` [Metformin] here?
**A.** The value was “identified using this technique”.

**Q.** For “PACAP Propeptide of 55 aa (aa 25-79): peptide derived from the Pituitary adenylate cyclase-activating polypeptide (PACAP, ADCYAP1, UniProt P18509) gene (SPAAAGLRFPGIRPEEEAYGEDGNPLPDFDGSEPPGAGSPASAPRAAAAWYRPAG; UniProt P18509 25-79, looked up, fragment)”, which “differentiation … PPARγ2 mRNA” value [1] is on record?
**A.** The value was “promote the differentiation of BAT progenitor cells into brown adipocytes and/or induce the expression of UCP1”.

**Q.** How did the “differentiation … PPARγ2 mRNA” value [1] turn out when “interleukin-6 (IL-6): Interleukin-6, UniProt P05231” was run?
**A.** The value was “promote the differentiation of BAT progenitor cells into brown adipocytes and/or induce the expression of UCP1”.

**Q.** `CN/C(=N\c1ccc(C2=NNC(=O)CC2C)cc1)NC#N` (stereo not drawn) [siguazodan] was tested. Which “differentiation … PPARγ2 mRNA” value [1] did it give?
**A.** Its value is “promote the differentiation of BAT progenitor cells into brown adipocytes and/or induce the expression of UCP1”.

**Q.** Which “differentiation … PPARγ2 mRNA” value [1] does the source give for `COc1ccc(C2CNC(=O)C2)cc1OC1CCCC1` (stereo not drawn) [rolipram] here?
**A.** Its value is “promote the differentiation of BAT progenitor cells into brown adipocytes and/or induce the expression of UCP1”.

**Q.** `CC1CCC(C(C)C)C(O)C1` (stereo not drawn) [menthol] was tested. Which “differentiation … PPARγ2 mRNA” value [1] did it give?
**A.** Its value is “promote the differentiation of BAT progenitor cells into brown adipocytes and/or induce the expression of UCP1”.

**Q.** How did the “UCP1 protein signal (IHC), differentiation of brown adipocyte progenitors into brown adipocytes” value [2] turn out when `CCSc1ccc2c(c1)N(CCCN1CCN(C)CC1)c1ccccc1S2` [Thiethylperazine] was run?
**A.** Its value is “identified using this technique”.

**Q.** Which “differentiation … PPARγ2 mRNA” value [1] does the source give for `O=C1NC(c2cccc([N+](=O)[O-])c2)=CCN1c1ccccc1O` [icilin] here?
**A.** Its value is “promote the differentiation of BAT progenitor cells into brown adipocytes and/or induce the expression of UCP1”.

**Q.** Which “UCP1 protein signal (IHC), differentiation of brown adipocyte progenitors into brown adipocytes” value [2] does the source give for `COC(=O)[C@H]1[C@H]2C[C@@H]3c4[nH]c5cc(OC)ccc5c4CCN3C[C@H]2C[C@@H](OC(=O)c2cc(OC)c(OC)c(OC)c2)[C@@H]1OC` [Reserpine] here?
**A.** Its value is “identified using this technique”.

**Q.** How did the “differentiation … PPARγ2 mRNA” value [1] turn out when `CCCCC[C@H](O)/C=C/[C@@H]1[C@@H](C/C=C\CCCC(=O)O)[C@H](O)C[C@H]1O` [9β,11α-prostaglandin F2] was run?
**A.** Its value is “promote the differentiation of BAT progenitor cells into brown adipocytes and/or induce the expression of UCP1”.

**Q.** `CC1(C)CC[C@]2(C(=O)O)CC[C@]3(C)C(=CC[C@@H]4[C@@]5(C)CC[C@H](O)C(C)(C)[C@@H]5CC[C@]43C)[C@@H]2C1` [oleanolic acid] was tested. Which “differentiation … PPARγ2 mRNA” value [1] did it give?
**A.** The value was “promote the differentiation of BAT progenitor cells into brown adipocytes and/or induce the expression of UCP1”.

**Q.** Which “differentiation … PPARγ2 mRNA” value [1] does the source give for BNP: b-type natriuretic peptide here?
**A.** The value was “promote the differentiation of BAT progenitor cells into brown adipocytes and/or induce the expression of UCP1”.

**Q.** For orexin B: orexin B, which “differentiation … PPARγ2 mRNA” value [1] is on record?
**A.** Its value is “promote the differentiation of BAT progenitor cells into brown adipocytes and/or induce the expression of UCP1”.

**Q.** How did the “UCP1 protein signal (IHC), differentiation of brown adipocyte progenitors into brown adipocytes” value [2] turn out when `NC(N)=Nc1nc(CSCCC(N)=NS(N)(=O)=O)cs1` [Famotidine] was run?
**A.** The value was “identified using this technique”.

**Q.** Which “UCP1 protein signal (IHC), differentiation of brown adipocyte progenitors into brown adipocytes” value [2] does the source give for `N=C(N)NC(=O)Cc1c(Cl)cccc1Cl` [Guanfacine hydrochloride] here?
**A.** Its value is “identified using this technique”.

**Q.** `COc1cc2c(c(OC)c1OC)-c1ccc(OC)c(=O)cc1[C@@H](NC(C)=O)CC2` [Colchicine] was tested. Which “UCP1 protein signal (IHC), differentiation of brown adipocyte progenitors into brown adipocytes” value [2] did it give?
**A.** Its value is “identified using this technique”.

B1: FGF7: fibroblast growth factor-7, keratinocyte growth factor (protein, UniProt P21781 32-194, looked up)
Fibroblast growth factor 7: CNDMTPEQMATNVNCSSPERHTRSYDYMEGGDIRVRRLFCRTQWYLRIDKRGKVKGTQEMKNNYNIMEIRTVAVGIVAIKGVESEFYLAMNKEGKLYAKKECNEDCNFKELILENHYNTYASAKWTHNGGEMFVALNQKGIPVRGKKTKKEQKTAHFLPMAIT
**Q.** B1 was tested. Which “differentiation … PPARγ2 mRNA” value [1] did it give?
**A.** The value was “promote the differentiation of BAT progenitor cells into brown adipocytes and/or induce the expression of UCP1”.

B2: FGF10: fibroblast growth factor-10, keratinocyte growth factor-2 (protein, UniProt O15520 38-208, looked up)
Fibroblast growth factor 10: QALGQDMVSPEATNSSSSSFSSPSSAGRHVRSYNHLQGDVRWRKLFSFTKYFLKIEKNGKVSGTKKENCPYSILEITSVEIGVVAVKAINSNYYLAMNKKGKLYGSKEFNNDCKLKERIEENGYNTYASFNWQHNGRQMYVALNGKGAPRRGQKTRRKNTSAHFLPMVVHS
**Q.** Which “differentiation … PPARγ2 mRNA” value [1] does the source give for B2 here?
**A.** Its value is “promote the differentiation of BAT progenitor cells into brown adipocytes and/or induce the expression of UCP1”.

B3: CNTF: ciliary neurotrophic factor (protein, UniProt P26441 1-200, looked up)
Ciliary neurotrophic factor: MAFTEHSPLTPHRRDLCSRSIWLARKIRSDLTALTESYVKHQGLNKNINLDSADGMPVASTDQWSELTEAERLQENLQAYRTFHVLLARLLEDQQVHFTPTEGDFHQAIHTLLLQVAAFAYQIEELMILLEYKIPRNEADGMPINVGDGGLFEKKLWGLKVLQELSQWTVRSIHDLRFISSHQTGIPARGSHYIANNKKM
**Q.** How did the “differentiation … PPARγ2 mRNA” value [1] turn out when B3 was run?
**A.** The value was “promote the differentiation of BAT progenitor cells into brown adipocytes and/or induce the expression of UCP1”.

B4: FGF13: fibroblast growth factor-13 (protein, UniProt Q92913 1-245, looked up)
Fibroblast growth factor 13: MAAAIASSLIRQKRQAREREKSNACKCVSSPSKGKTSCDKNKLNVFSRVKLFGSKKRRRRRPEPQLKGIVTKLYSRQGYHLQLQADGTIDGTKDEDSTYTLFNLIPVGLRVVAIQGVQTKLYLAMNSEGYLYTSELFTPECKFKESVFENYYVTYSSMIYRQQQSGRGWYLGLNKEGEIMKGNHVKKNKPAAHFLPKPLKVAMYKEPSLHDLTEFSRSGSGTPTKSRSVSGVLNGGKSMSHNEST
**Q.** Which “differentiation … PPARγ2 mRNA” value [1] does the source give for B4 here?
**A.** Its value is “promote the differentiation of BAT progenitor cells into brown adipocytes and/or induce the expression of UCP1”.

B5: BDNF: brain-derived neurotrophic factor (protein, UniProt P23560 19-247, looked up)
Neurotrophic factor BDNF …: APMKEANIRGQGGLAYPGVRTHGTLESVNGPKAGSRGLTSLADTFEHVIEELLDEDQKVRPNEENNKDADLYTSRVMLSSQVPLEPPLLFLLEEYKNYLDAANMSMRVRRHSDPARRGELSVCDSISEWVTAADKKTAVDMSGGTVTVLEKVPVSKGQLKQYFYETKCNPMGYTKEGCRGIDKRHWNSQCRTTQSYVRALTMDSKKRIGWRFIRIDTSCVCTLTIKRGR
**Q.** B5 was tested. Which “differentiation … PPARγ2 mRNA” value [1] did it give?
**A.** Its value is “promote the differentiation of BAT progenitor cells into brown adipocytes and/or induce the expression of UCP1”.
